Assay results reported in ChEMBL document CHEMBL1201862, “PubChem BioAssay data set” (2004).
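In this assay, cells in 96-well plates receive the compound at five concentrations for 48 hours. Endpoints are linearly interpolated between the surrounding concentrations. GI50 marks 50% less growth.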 Active and inactive are the calls of the source. Rule as the data show it: active = GI50 up to about 1.1 µM and inactive = higher.

How the values were obtained:
Experiment in all cases: inhibition of tumour cell growth, NCI panel, 48 h
[1] = tested on: K562
[2] = tested on: SK-OV-3
[3] = tested on: NCI-H226
[4] = tested on: MDA-N
[5] = tested on: DU-145
[6] = tested on: SN12C
[7] = tested on: SNB-19
[8] = tested on: NCI-H522
[9] = tested on: ACHN
[10] = tested on: SNB-75
[11] = tested on: MDA-MB-231
[12] = tested on: MDA-MB-435
[13] = tested on: KM12
[14] = tested on: CAKI-1
[15] = tested on: OVCAR-5
[16] = tested on: NCI/ADR-RES
[17] = tested on: MCF7
[18] = tested on: U-251
[19] = tested on: HOP-62
[20] = tested on: NCI-H23

Measured: GI50

CN(CCc1ccc(Br)cc1)CCN1CCCCC1
inactive: [1] 15.1 µM | [2] 55.8 µM | [3] 33.4 µM | [4] 22.6 µM | [5] 99.5 µM | [6] 81.1 µM | [7] > 100 µM | [8] 21.6 µM | [9] 62.5 µM | [10] 22.3 µM | [11] 17.3 µM | [12] 26.4 µM | [13] 21.1 µM | [14] 43.2 µM | [15] 41 µM | [16] 46.5 µM | [17] 21.7 µM | [18] 39.5 µM | [19] 31.8 µM | [20] 31.9 µM

Oc1ccc(O)c(Sc2nnc(CCCCCCCCc3nnc(Sc4cc(O)ccc4O)o3)o2)c1
inactive: [1] 39.8 µM | [2] > 100 µM | [3] > 100 µM | [4] 17.3 µM | [5] > 100 µM | [6] 90.6 µM | [7] > 100 µM | [8] 23.8 µM | [9] 28.1 µM | [10] > 100 µM | [11] > 100 µM | [12] 18.2 µM | [13] 26.7 µM | [14] 28.8 µM | [15] 95.9 µM | [16] > 100 µM | [17] 33.8 µM | [18] 71.6 µM | [19] > 100 µM | [20] > 100 µM

CCNCCCCNCCCCNCCCCNCCCCNCC
inactive: [1] 57 µM | [2] > 100 µM | [3] > 100 µM | [4] 12.3 µM | [5] > 100 µM | [6] > 95.1 µM | [7] 99.8 µM | [8] > 100 µM | [9] > 89.9 µM | [10] 16.7 µM | [11] > 100 µM | [12] 8.97 µM | [13] 76.6 µM | [14] 10.4 µM | [15] 52.5 µM | [16] > 100 µM | [17] > 100 µM | [18] > 100 µM | [19] 26.4 µM | [20] 9.08 µM

COc1ccc(N2C(=O)C3c4[nH]c5ccc([N+](=O)[O-])cc5c4C4CCC(C(C)(C)C)CC4C3C2=O)cc1 (stereo not given)
inactive: [1] 2.52 µM | [2] > 100 µM | [3] 28 µM | [4] 20.3 µM | [5] 32.8 µM | [6] 15.2 µM | [7] 35.7 µM | [8] 19.9 µM | [9] 9.75 µM | [10] 7.28 µM | [11] 5.18 µM | [12] 18.7 µM | [13] 6.5 µM | [14] 18.3 µM | [15] 18.5 µM | [16] 9.62 µM | [17] 4.45 µM | [18] 19.3 µM | [19] 24.4 µM | [20] 6.53 µM

S=c1[nH]nc(Cc2ccccc2)c(=S)[nH]1
inactive: [1] 61.1 µM | [2] > 81.5 µM | [3] > 95.3 µM | [4] 98.6 µM | [5] 61.9 µM | [6] 65.3 µM | [7] > 87.9 µM | [8] > 51.1 µM | [9] 4.8 µM | [10] 23.1 µM | [11] 26.1 µM | [12] 63 µM | [13] > 79.8 µM | [14] > 54.8 µM | [15] > 50.2 µM | [16] 49.4 µM | [17] 55.8 µM | [18] > 55.1 µM | [19] > 75 µM | [20] > 64.4 µM

Cc1ccc2nc(CN(CCO)CCO)cc(=O)n2c1
inactive: [1] > 100 µM | [2] > 100 µM | [3] > 100 µM | [4] > 100 µM | [5] > 100 µM | [6] > 100 µM | [7] > 100 µM | [8] > 100 µM | [9] > 100 µM | [10] > 100 µM | [11] > 100 µM | [12] > 100 µM | [13] > 100 µM | [14] > 100 µM | [15] > 100 µM | [16] > 100 µM | [17] > 100 µM | [18] > 100 µM | [19] > 100 µM | [20] > 100 µM

CC(=O)OCC1OC(OC2CC3C(C)(C)C(=O)CC[C@]3(C)C3CC[C@]45C[C@]4(CCC5[C@@H](C)CC(O)C(O)C(C)(C)O)[C@]23C)C(O)C(O)C1O (stereo not given in full)
inactive: [1] 5.52 µM | [2] 15.5 µM | [3] 16.5 µM | [4] 10.7 µM | [5] 17.1 µM | [6] 13.4 µM | [7] 11.3 µM | [8] 10.6 µM | [9] 16.4 µM | [10] 5.35 µM | [11] 6.44 µM | [12] 8.99 µM | [13] 6.43 µM | [14] 17.1 µM | [15] 16.7 µM | [16] 18.3 µM | [17] 4.78 µM | [18] 8.13 µM | [19] 19.3 µM | [20] 17.5 µM

CC1=NN(c2ccccc2)C2(C1)C(Cl)C(=O)N2c1nc2ccccc2s1 (stereo not given)
inactive: [1] 33.6 µM | [2] 32.1 µM | [3] 15.1 µM | [4] 35.6 µM | [5] 36.2 µM | [6] 23.5 µM | [7] 43 µM | [8] 21.6 µM | [9] 46.9 µM | [10] 80.5 µM | [11] 28.8 µM | [12] 40.6 µM | [13] 49.5 µM | [14] 66.7 µM | [15] 41.7 µM | [16] 23.9 µM | [17] 43.9 µM | [18] 26 µM | [19] 25.2 µM | [20] 24.2 µM

Nc1cc(O)c2c(c1O)C(=O)C=CC2=O
inactive: [1] 5.78 µM | [2] 47 µM | [3] 67.1 µM | [4] 6.1 µM | [5] 18.2 µM | [6] 16.1 µM | [7] 23.8 µM | [8] 5.9 µM | [9] 12.3 µM | [10] 30.7 µM | [11] 13.6 µM | [12] 6.1 µM | [13] 19.6 µM | [14] 18.6 µM | [15] 20.8 µM | [16] 10 µM | [17] 7.13 µM | [18] 18.2 µM | [19] 27.3 µM | [20] 8.99 µM

COc1ccc(/N=C2\C(=N/c3ccc(OC)cc3)N(S(=O)(=O)c3ccccc3)C(=S)N2c2ccccc2)cc1
inactive: [1] > 100 µM | [2] > 100 µM | [3] > 100 µM | [4] > 100 µM | [5] > 100 µM | [6] > 100 µM | [7] > 100 µM | [8] 86.3 µM | [9] > 100 µM | [10] > 100 µM | [11] > 100 µM | [12] > 100 µM | [13] > 100 µM | [14] > 100 µM | [15] > 100 µM | [16] > 100 µM | [17] > 100 µM | [18] > 100 µM | [19] > 100 µM | [20] > 100 µM

COc1cc(C2SCC(=O)N2c2ccc(-c3ccc(-n4c(-c5ccccc5)nc5ccccc5c4=O)cc3)cc2)ccc1O (stereo not given)
inactive: [1] 46.7 µM | [2] 16 µM | [3] 30.9 µM | [4] 80 µM | [5] > 100 µM | [6] > 100 µM | [7] > 100 µM | [8] 35.1 µM | [9] > 100 µM | [10] 15 µM | [11] > 100 µM | [12] 74.1 µM | [13] 48.2 µM | [14] > 100 µM | [15] 48.3 µM | [16] 13.6 µM | [17] 59.4 µM | [18] 44.2 µM | [19] > 100 µM | [20] > 100 µM

CCOC(=O)CNC(=O)CNC(=O)CNC(=O)CNNc1c(OCc2ccccc2)c(=O)c1=O
inactive: [1] > 100 µM | [2] > 100 µM | [3] > 100 µM | [4] > 100 µM | [5] > 100 µM | [6] > 100 µM | [7] > 100 µM | [8] > 100 µM | [9] > 100 µM | [10] > 100 µM | [11] > 100 µM | [12] > 100 µM | [13] > 100 µM | [14] > 100 µM | [15] > 100 µM | [16] > 100 µM | [17] > 100 µM | [18] > 100 µM | [19] > 100 µM | [20] > 100 µM

NNC1=NC(=O)NC(=O)C1
inactive: [1] > 100 µM | [2] > 100 µM | [3] > 100 µM | [4] > 100 µM | [5] > 100 µM | [6] > 100 µM | [7] > 100 µM | [8] > 100 µM | [9] > 100 µM | [10] > 100 µM | [11] > 100 µM | [12] > 100 µM | [13] > 100 µM | [14] > 100 µM | [15] > 100 µM | [16] > 100 µM | [17] > 100 µM | [18] > 100 µM | [19] > 100 µM | [20] > 100 µM

C=CCC1(OC(C)=O)C2OC(=O)C1(O)OCC2O (stereo not given)
inactive: [1] > 100 µM | [2] > 100 µM | [3] > 100 µM | [4] > 100 µM | [5] > 100 µM | [6] > 100 µM | [7] > 100 µM | [8] > 100 µM | [9] > 100 µM | [10] > 39.9 µM | [11] > 100 µM | [12] > 100 µM | [13] > 100 µM | [14] > 100 µM | [15] > 100 µM | [16] > 100 µM | [17] > 100 µM | [18] > 100 µM | [19] > 100 µM | [20] > 100 µM
